Measurements published in patent US9586901B2, “Lactams” (UNILEVER PLC, priority 2006, dated 2017).

Columns and labels:
[1] = test system: Staphylococcus epidermidis; experiment: S. epidermidis growth inhibition (OD600 growth curves); type: cell-based; settings: concentration of compound that significantly alters growth rate or final growth yield
Description: The growth inhibition of Staphylococcus epidermidis by the compounds of the present invention was determined by growing S. epidermidis in 96 well microtitre plates in Trypticase Soy Broth plus 0.5% glucose in a Wallac Victor2 microplate reader. Each compound was added to the wells at different concentrations and a no-compound control and a set of blank wells were also used. The OD600 was measured hourly.

[2] = test system: E. coli biofilm; experiment: Inhibition of biofilm formation in petri dishes, E. coli; type: cell-based; settings: 1.5 ug/ml; percent reduction of control
Description: (§1) Biofilm formation in petri dishes was measured using the following protocol as a compromise between flow cells and microtitire plate based assays. The method increases the number of replicates (relative to flow cells) that can be tested while still generating a biofilm that has typical structures, such as microcolonies, which are important as differentiated structures within the biofilm. The method consists of placing a surface, such as a glass slide (for unattached compounds) or a modified plastic coupon (for covalently attached compounds) on the bottom of a sterile petri dish and adding growth medium. The bacteria are inoculated into the dish and allowed to incubate at the appropriate temperature at 50 rpm. The medium is replaced at 24 h and allowed to incubate a further 24 h, after which time, the slides are removed and rinsed to remove loosely attached cells. For monitoring biofilm formation on glass slides, the cells are either stained with a suitable fluorescent stain and are visualised using the confocal microscope and the biofilm (as % surface coverage) is quantified, or the biofilm is stained with crystal violet, washed thoroughly to remove excess stain, and subsequently destained and the absorbance at […] is measured to determine the amount of biofilm, as a function of crystal violet staining.

[3] = test system: LasR; experiment: LasR assay (unstable gfp fused to the elastase promoter); type: cell-based; settings: Pseudomonas aeruginosa, read-out: LasR (conc)
Description: Compounds of the present invention were also assayed using a LasR assay. The LasR assay provides a measurement of quorum sensing inhibition activity. The higher the percentage inhibition. […] In the LasR assay, an unstable gfp has been fused to the elastase promoter, so that the amount of Gfp is regulated by the QS system. The plasmid is put into Pseudomonas aeruginosa which makes its own AHL signals. The assay is performed by adding the compounds to be tested to the system at the beginning of the experiment, at different concentrations. Gfp expression is measured at different times during growth, ending at the 24 h time point. The percentage fluorescence was determined at the time point when the fluorescence reached its maximum in the control, usually around 11-12 h after inoculation.

[4] = test system: P. aeruginosa biofilm; experiment: Inhibition of biofilm formation in petri dishes, P. aeruginosa; type: cell-based; settings: 1 ug/ml; percent reduction of control
Description: as §1

[5] = test system: V. fischeri luxRI system; experiment: N-acylated homoserine lactone (AHL) quorum sensing assay, GFP reporter strain; type: cell-based, E. coli
Description: Compounds of the present invention were compared to compounds of the prior art in order using an AHL-quorum sensing assay which utilises a reporter strain that expresses Green Fluorescent Protein (GFP) in the presence of AHL signals. The assay is performed by measuring GFP output in the presence of the compound to be measured and comparing the output to a control. By using multiple samples at varying concentrations of compound and AHL, an inhibition index of compound activity can be generated. The inhibition index used in the present example is the relative amount of compound required to reduce GFP expression to 40% of the control. The inhibition index is termed AIC40. Lower values of AIC40 represent better inhibitors of the AHL quorum sensing system.
The reporter strain of bacterium used in this assay is E. coli into which the V. fischeri luxRI system has been engineered. A gfp gene is fused to the QS controlled luxI promoter as is described in (Andersen et al., 2001, and Andersen et al, 1998).
Measurement of AIC40 (ID40 at 3 nM OHHL)
Determination of the activity of compounds using the E. coli based luxRI construct was performed as follows.
In a 15 mL plastic tube, mix 3 mL of o.n. culture of the lux reporter strain with 12 mL fresh medium, incubate at 37° C. Label six tubes, 10, 20, two 50 and two 100. To each of the tubes, add OHHL (3-oxohexanoyl homoserine lactone) to a final concentration of 10, 20, 50, or 100 nM respectively in the AB medium (add enough medium to distribute across the appropriate number of wells). To the first row of the microplate (row A), add 200 ul of the OHHL/AB mixture. To the remaining rows (B-H) add 100 ul of the OHHL/AB mixture. To the first row (A) add compounds to be tested to the 200 ul mixture of OHHL/AB. Make a dilution series in the first 7 rows by transferring 100 μL from wells in row 1 to wells in row 2 and so on. Discard the remaining 100 μL from row 7. Add 100 μL diluted lux monitor to each well. Incubate the plate 2 hours at 37° C. and measure green fluorescence using the “Victor” plate reader.
Calculate ID40 for each column. To do this, calculate the relative activity in each well. […] Make a plot for each concentration of OHHL vs. the range of compound concentrations used. Calculate the amount of compound needed to lower the relative activity to 40%, this is termed inhibiting dose 40%, ID40. For each compound an inhibition index, AIC40, is found as follows: plot ID40 against its respective AHL concentration; AIC40 is the slope of the best straight line through the plotted points and origin.
The methodology for this assay is set out in 2(a) above.

[6] = test system: S. epidermidis biofilm; experiment: Inhibition of biofilm formation in petri dishes, S. epidermidis; type: cell-based; settings: 0.32 ug/ml; percent reduction of control
Description: as §1

C=C1NC(=O)C=C1c1ccc(Br)cc1 [drawing 25]
minimal effective concentration [1]: 1 µg/mL
E. coli biofilm [2]: 93% (1.5 ug/ml)
inhibition at 50 µg/mL [3]: 45%
P. aeruginosa biofilm [4]: 32% (1 ug/ml)
ID40 at 3 nM OHHL ([5]; Table 4, number in parentheses, amount of compound lowering relative activity to 40%): 21 nM
AIC40 ([5]; Table 4 comparative results, first number of the cell, lower = better): 0.49
AIC40 ([5]; inhibition index: slope of ID40 against AHL concentration, lower = better inhibitor, NE = no effect): 0.49
S. epidermidis biofilm [6]: 41% (0.32 ug/ml)
